Consider two molecules from US7192763B2, “Streptomyces anulatus microorganism and a process for producing the substance GM-95” (Sosei Co., Ltd., priority 2001, dated 2007).

pIC50: −log10 of the molar value.

The test system of data set [1] is OVCAR-3 (human ovarian cancer). Briefly: Tumor cell growth inhibition (crystal violet), OVCAR-3. The format is cell-based. Particulars: 72 hours, read-out: Concentrations for 50% growth inhibition of various tumor cells (IC50). Here is the method:
(§1) Tumor cells described in Table 5 were suspended in RPMI1640 medium containing 10% fetal calf serum, plated into culture plates (38 mm) at the density of in 2×10^3 cells each, and cultured in 37° C., 5% CO2 incubator overnight. Subsequently, experimental agents (the compound of the invention and 5-fluorouracil) diluted to various concentrations using RPMI1640 medium containing 10% fetal calf serum were added to each plate, and further cultured for 72 hours. After the cell culture was completed, those cells were fixed with 25% glutalaldehyde for 15 minutes and washed with water three times. After that, the cells were stained with 0.05% crystal violet diluted in 20% methanol aqueous solution, washed with water three times and then dried. The crystal violet were extracted with 100 μl of 0.05M sodium dihydrogenphosphate/ethanol (1/1(v/v)), their absorbance at 540 nm were determined by an automatic spectroscope. “IC50” was defined as the concentration required for a 50% reduction in growth compared to the control absorbance.

In data set [2] the test system is PC-3 (human prostate cancer). The data set is described as follows: Tumor cell growth inhibition (crystal violet), PC-3. The format is cell-based. Particulars: 72 hours, read-out: Concentrations for 50% growth inhibition of various tumor cells (IC50). Here is the method: as §1
The test system of data set [3] is SKOV-3 (human ovarian cancer). Briefly: Tumor cell growth inhibition (crystal violet), SKOV-3. It is filed as cell-based. Particulars: SK-OV-3, 72 hours, read-out: Concentrations for 50% growth inhibition of various tumor cells (IC50). Here is the method:
as §1

Data set [4] has as its system MCF-7 (human breast cancer). The data set is described as follows: Tumor cell growth inhibition (crystal violet), MCF-7. It is filed as cell-based. Particulars: MCF7, 72 hours, read-out: Concentrations for 50% growth inhibition of various tumor cells (IC50). How it is done: as §1
Data set [5] relates to ZR75-1 (human breast cancer). Briefly: Tumor cell growth inhibition (crystal violet), ZR75-1. The format is cell-based. Particulars: ZR-75-1, 72 hours, read-out: Concentrations for 50% growth inhibition of various tumor cells (IC50). Here is the method: as §1
The subject of data set [6] is PAN-3 (human pancreatic cancer). The data set is described as follows: Tumor cell growth inhibition (crystal violet), PAN-3. It is filed as cell-based. Particulars: 72 hours, read-out: Concentrations for 50% growth inhibition of various tumor cells (IC50). Here is the method:
as §1

Data set [7] relates to KM12C-SM (human colon cancer). The data set is described as follows: Tumor cell growth inhibition (crystal violet), KM12C-SM. The format is cell-based. Particulars: 72 hours, read-out: Concentrations for 50% growth inhibition of various tumor cells (IC50). Here is the method:
as §1

For data set [8], the system named is A375SM (human melanoma). Briefly: Tumor cell growth inhibition (crystal violet), A375SM. It is filed as cell-based. The note with it: A375-SM, 72 hours, read-out: Concentrations for 50% growth inhibition of various tumor cells (IC50). How it is done:
as §1

Data set [9] relates to TMK-1 (human gastric cancer). Briefly: Tumor cell growth inhibition (crystal violet), TMK-1. It is filed as cell-based. The note with it: 72 hours, read-out: Concentrations for 50% growth inhibition of various tumor cells (IC50). How it is done:
as §1

For data set [10], the system named is HT-29 (human colon cancer). Briefly: Tumor cell growth inhibition (crystal violet), HT-29. The format is cell-based. Particulars: 72 hours, read-out: Concentrations for 50% growth inhibition of various tumor cells (IC50). Here is the method: as §1
Data set [11] has as its system DLD-1 (human colon cancer). Briefly: Tumor cell growth inhibition (crystal violet), DLD-1. It is filed as cell-based. Particulars: 72 hours, read-out: Concentrations for 50% growth inhibition of various tumor cells (IC50). How it is done:
as §1

Data set [12] relates to Renca (mouse renal cancer). Briefly: Tumor cell growth inhibition (crystal violet), Renca. The format is cell-based. The note with it: 72 hours, read-out: Concentrations for 50% growth inhibition of various tumor cells (IC50). Here is the method: as §1
The target in data set [13] is T1, telomerase (Homo sapiens, UniProt O14746).
T1 construct: using cell extracts containing telomerase according to the conventional manner; endogenous in cells
T1 sequence (O14746 whole entry): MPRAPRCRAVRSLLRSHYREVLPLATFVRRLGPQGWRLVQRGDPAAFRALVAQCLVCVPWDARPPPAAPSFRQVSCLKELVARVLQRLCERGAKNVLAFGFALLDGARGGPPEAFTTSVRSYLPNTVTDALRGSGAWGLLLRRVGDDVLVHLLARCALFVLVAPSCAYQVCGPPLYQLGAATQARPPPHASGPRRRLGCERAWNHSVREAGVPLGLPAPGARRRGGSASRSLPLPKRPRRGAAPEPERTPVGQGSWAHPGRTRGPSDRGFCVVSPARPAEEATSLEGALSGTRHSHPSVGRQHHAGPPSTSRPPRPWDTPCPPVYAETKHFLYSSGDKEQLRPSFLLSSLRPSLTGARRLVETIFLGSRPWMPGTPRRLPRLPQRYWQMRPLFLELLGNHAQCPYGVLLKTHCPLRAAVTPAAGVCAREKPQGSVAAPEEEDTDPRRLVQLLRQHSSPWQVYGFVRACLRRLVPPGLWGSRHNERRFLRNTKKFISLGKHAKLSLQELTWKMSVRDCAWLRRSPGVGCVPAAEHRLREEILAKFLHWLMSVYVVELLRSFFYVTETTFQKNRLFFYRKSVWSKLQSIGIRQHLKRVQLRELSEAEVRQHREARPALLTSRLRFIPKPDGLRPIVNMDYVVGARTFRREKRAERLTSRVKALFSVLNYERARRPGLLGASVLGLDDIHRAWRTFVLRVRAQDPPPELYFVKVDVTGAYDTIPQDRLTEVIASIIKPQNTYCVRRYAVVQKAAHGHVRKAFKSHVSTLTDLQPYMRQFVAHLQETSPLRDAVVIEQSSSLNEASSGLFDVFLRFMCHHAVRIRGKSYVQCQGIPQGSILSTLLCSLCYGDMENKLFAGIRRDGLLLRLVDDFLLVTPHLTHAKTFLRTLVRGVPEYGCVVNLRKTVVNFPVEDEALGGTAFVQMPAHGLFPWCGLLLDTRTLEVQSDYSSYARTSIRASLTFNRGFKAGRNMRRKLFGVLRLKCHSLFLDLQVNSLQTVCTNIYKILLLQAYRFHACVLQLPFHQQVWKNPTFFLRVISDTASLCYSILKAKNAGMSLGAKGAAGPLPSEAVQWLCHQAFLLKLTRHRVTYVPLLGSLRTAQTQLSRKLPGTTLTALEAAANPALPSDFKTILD
Briefly: Telomerase-inhibiting activity using cell extracts containing telomerase. The format is biochemical. Particulars: read-out: concentration for inhibiting telomerase activity by 50% (IC50) in cell extracts. From the text:
The compound of the invention was subjected to the examination of telomerase-inhibiting activity using cell extracts containing telomerase according to the conventional manner, to provide the concentration for inhibiting telomerase activity by 50% (IC50) in cell extracts.

A short description of data set [14]: Solubilities in solvents. The format is physicochemical. An excerpt:
Insoluble in water and in acetone.
Soluble in a mixture of chloroform:methanol=1:1 • 8) Color of the substance: white yellowish powders • 9) Nuclear magnetic resonance spectrum

As for `Cc1oc2nc1-c1nc(co1)-c1nc(co1)-c1nc(co1)-c1nc(co1)-c1nc(co1)C1=NC(CS1)c1nc-2c(C)o1` (stereo not shown) [Substance GM-95], the pIC50 in data set [1] was 5.47; in data set [2] it was 5.05; in data set [3], 5.43; in data set [4], 5.11; in [5], 5.39; in [6], 5.15. Also, the pIC50 in data set [7] was 5.43; in data set [8], 5.15; in data set [9], 5.43; in data set [10], 5.15; in data set [11], 5.21; in data set [12], 6.01. In addition, the pIC50 in data set [13] is 7.30. Also, the Solubility in acetone result in data set [14] (acetone) was “Insoluble”. Further, in data set [14] (chloroform:methanol=1:1), the “Solubility in a mixture of chloroform:methanol=1:1” value is recorded as “Soluble”. For the same molecule, the Solubility in water entry in data set [14] (water) is on record as “Insoluble”.
With `O=c1[nH]cc(F)c(=O)[nH]1` [5-fluorouracil, reference compound], the pIC50 is 6.43 in [1]; 5.24 in data set [2]; 5.11 in data set [3]; 5.95 in data set [4]; 5.44 in data set [5]; 5.05 in data set [6]. Further, the pIC50 was 5.88 in [7]; 5.54 in data set [8]; 6.48 in [9]; 5.68 in data set [10]; 5.26 in [11]; 6.24 in data set [12].
